Measured values from PubChem BioAssay AID2743 (NMMLSC, 2010).
Several values for one entry are separate records, joined by “and”; a condition that tells them apart may be missing. Equal entries are not always repeated. Activity calls are given as the source filed them.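 How the source made its calls: active means fitted half-maximal concentration for change in GFP expression of 33 µM or less; inactive means the rest.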

Experiment: potency of AGP1-GFP expression modulators in yeast, dose response, cell-based, flow cytometry, S. cerevisiae, MLPCN hits (AID 2743)
Details: S. cerevisiae AGP1-GFP strain, flow cytometry GFP, 3 h; at 33 µM (top of the series)

Compound	GFP fluorescence (kMESF)
O=C(OCC(=O)N1CCN(C(=O)c2ccco2)CC1)c1cc(-c2ccc(F)cc2)nc2ccccc12	49.9 kMESF (inactive) and 40 kMESF (inactive)
CC(C)(C)C1C/C(=C/c2ccccn2)C(=O)/C(=C/c2ccccn2)C1 (centres undefined)	32.6 kMESF (inactive)
Nc1ccccc1C#CC(=O)c1ccccc1	31.7 kMESF (inactive)
Cc1cccc(/C=C/C(=O)c2ccc([N+](=O)[O-])o2)c1	19.2 kMESF (inactive)
Cc1nn2c(NCc3ccccn3)c3c(nc2c1-c1ccccc1)CCC3	40.6 kMESF (inactive)
CC(=O)Oc1ccc(N2C(=O)C3C4C=CC(O4)C3C2=O)cc1 (centres undefined)	45.2 kMESF (inactive)
Cc1cc(C)c2c(c1)/C(=C/C(=O)c1ccc(Br)s1)C(=O)N2	42.9 kMESF (inactive)
Cc1ccc(/C=c2\sc3nc(-c4cccs4)nn3c2=O)o1	42.1 kMESF (inactive)
Cc1ccc(NC(=O)c2cc(N3C(=O)C=CC3=O)ccc2Cl)cc1C	23.9 kMESF (inactive)
O=C1C=CC(=O)N1c1ccc(N2CCCCC2)cc1	46.9 kMESF (inactive)
Cc1[nH]n(-c2ncc(-c3ccccc3)s2)c(=O)c1C(c1ccc(Cl)cc1)C(C#N)C#N (centres undefined)	40.6 kMESF (inactive)
Cc1ccc(C(=O)Oc2oc(-c3ccccc3)nc2C=Nc2ccc(N(C)C)cc2)cc1	39.3 kMESF (inactive)
CC(Oc1cc2oc(=O)c3c(c2cc1Cl)CCC3)C(=O)NCCN1CCOCC1 (centres undefined)	34.8 kMESF (inactive)
O=C(Nc1nc2ccc(F)cc2s1)c1ccccn1	41.4 kMESF (inactive)
CCN(CC(=O)NC(C)(C)C)C(=O)COc1c(Cl)cc(Cl)c2ccc(C)nc12	35.5 kMESF (inactive)
O=C1C(Cl)=C(N2CCN(Cc3ccccc3)CC2)C(=O)N1c1ccccc1	43.8 kMESF (inactive)
COC(=O)CCC(=O)OC1(C)C(=O)C2=COC(c3ccc(OC)cc3)=CC2=C(Br)C1=O (centres undefined)	7.85 kMESF (inactive)
Nc1nc2ncc(CNc3ccc(C(=O)N[C@@H](CCC(=O)O)C(=O)O)cc3)nc2c(=O)[nH]1	29.1 kMESF (inactive)
COc1cccc(/C=C/C(=O)c2c(O)cc(C)oc2=O)c1O	43.2 kMESF (inactive)
COC(=O)/C(=C/c1c[nH]c2ccccc12)[N+](=O)[O-]	39.1 kMESF (inactive)
Oc1c(CN2CCN(c3ccccc3)CC2)cc(Br)c2cccnc12	39 kMESF (inactive)
O=C(O)c1ccccc1SC1CC(=O)N(c2ccc3c(c2)OCO3)C1=O (centres undefined)	47.9 kMESF (inactive)
C[C@H]1C[C@@H](C)C(=O)[C@@H]([C@H](O)CC2CC(=O)NC(=O)C2)C1	25.3 kMESF (inactive)

Compound	GFP fluorescence (kMESF)
C/C(=N/NC(=O)c1ccc(C(C)(C)C)cc1)c1ccccn1	55.7 kMESF (inactive)
CC(C)(C)c1ccc(NC(=O)COC(=O)c2ccc([N+](=O)[O-])s2)cc1	14.7 kMESF (inactive)
CC(C)Oc1ccc(C(=O)/C=C2/C(=O)Nc3ccccc32)cc1	46.3 kMESF (inactive)
O=[N+]([O-])c1ccc(O)c2ncccc12	39.4 kMESF (inactive) and 32.2 kMESF (inactive)
O=C1NC(=S)NC(=O)C1=Cc1ccc2c(c1)CCN2CCCCl	35 kMESF (inactive)
Oc1c(I)cc(Cl)c2cccnc12	25 kMESF (inactive)
COc1ccccc1C(=O)NNC(=S)NC(=O)c1ccco1	38.7 kMESF (inactive)
COc1ccc(N=Nc2ccc(O)c3ncccc23)cc1	40.8 kMESF (inactive)
Cc1ccccc1N=Nc1ccc(O)c2ncccc12	31.9 kMESF (inactive)
COc1cccc(N=Nc2ccc(O)c3ncccc23)c1	45.7 kMESF (inactive)
COc1ccccc1N=Cc1nc(-c2ccccc2)oc1OC(C)=O	35.1 kMESF (inactive)
O=S(=O)(/N=C(/Sc1ccccc1)c1ccccc1)c1ccccc1	41 kMESF (inactive)
O=C(/C=C/c1ccccc1[N+](=O)[O-])c1ccccc1Br	50.7 kMESF (inactive)
NC(=O)COc1ccc(C(=O)/C=C2/C(=O)Nc3ccccc32)cc1	46.2 kMESF (inactive)
CCN(CC)C(=S)SSC(=S)N(CC)CC	37.5 kMESF (inactive)
Cc1ccc(/C=C/C(=O)c2ccc([N+](=O)[O-])o2)cc1	42.9 kMESF (inactive)
O=C1c2cccc3c([N+](=O)[O-])ccc(c23)C(=O)N1CCc1ccccn1	44.1 kMESF (inactive)
Oc1c(CN2CCN(c3ccc(F)cc3)CC2)cc(Cl)c2cccnc12	41.8 kMESF (inactive)
O=C(c1ccc(C(=O)N2CCCc3ccccc32)s1)N1CCCc2ccccc21	38.6 kMESF (inactive)
Cc1ccc(S(=O)(=O)ON2C(=O)c3ccccc3C2=O)c(C)c1	33 kMESF (inactive)
Cc1ccccc1C(=O)NNC(=S)NC(=O)c1ccc(Cl)cc1Cl	40.9 kMESF (inactive)
O=c1cc(-c2ccccc2)cc(-c2ccccc2)n1O	22.5 kMESF (inactive)
COc1ccc(N2CCN(C(=O)c3ccccc3)CC2)c([N+](=O)[O-])c1	40.6 kMESF (inactive)

Compound	GFP fluorescence (kMESF)
O=[N+]([O-])c1cc(CN2CCN(c3cccc(C(F)(F)F)c3)CC2)c2cccnc2c1O	32.2 kMESF (inactive)
c1ccc(-c2cccc(-c3ccccn3)n2)nc1	38.3 kMESF (inactive)
Cc1cccc(N=Nc2ccc(O)c3ncccc23)c1	40.1 kMESF (inactive)
Cc1sc(/C=C2\C(=O)ON=C2c2ccccc2)cc1Br	34 kMESF (inactive)
CCOC(=O)CSC1=NC(=O)/C(=C/c2ccc(Br)cc2)S1	37 kMESF (inactive)
O=C(NCc1ccc2c(c1)OCO2)c1nc(S(=O)(=O)Cc2ccccc2)ncc1Cl	40.9 kMESF (inactive)
O=C(C#Cc1ccccc1)c1ccco1	29.7 kMESF (inactive)
O=C(NC(=S)NNC(=O)c1cnccn1)c1ccc(Cl)cc1	37.6 kMESF (inactive)
C=CCOc1cccc(C(=O)/C=C2/C(=O)Nc3ccccc32)c1	43.2 kMESF (inactive)
O=C1ON=C(c2ccc(Cl)cc2)/C1=C/c1ccc(O)cc1	23.3 kMESF (inactive)
Cc1ccsc1/C=N/Nc1ncc(Cl)cc1Cl	36 kMESF (inactive)
COC(CNC(=O)c1ccc2c3c(onc13)-c1ccccc1C2=O)OC	1.89 kMESF (inactive)
N#Cc1cc([N+](=O)[O-])c(-n2nnc3ccccc32)c([N+](=O)[O-])c1	41.5 kMESF (inactive)
CC(C)(C)n1nc(-c2ccc(Cl)cc2)c2c(N)ncnc21	39.9 kMESF (inactive)
O=c1oc2ccccc2c(O)c1[C@H]1c2ccc(O)cc2Oc2c1c(=O)oc1ccccc21	36.3 kMESF (inactive)
CCCOc1ccc(C(=O)NNC(=S)NC(=O)c2ccco2)cc1	50.3 kMESF (inactive)
COc1cc(NC(=O)c2cccc(C)c2)ccc1NC(=O)c1cc2ccccc2o1	44.2 kMESF (inactive)
O=C(Nc1nc(-c2ccccn2)cs1)C1COc2ccccc2O1 (centres undefined)	26.3 kMESF (inactive)
CN(c1ccccc1)c1ccc(/C=c2\s/c(=C(/C#N)C(=O)C(C)(C)C)n(Cc3ccco3)c2=O)cc1	38 kMESF (inactive)
CC(=O)Nc1ncnc2c1c(-c1ccc(Cl)cc1)nn2C(C)(C)C	30.3 kMESF (inactive)
Cc1ccc(C(=O)/C=C/C(=O)c2ccc(C)cc2)cc1	43.8 kMESF (inactive)
O=C1Oc2ccccc2C(=O)/C1=C/c1ccccc1O	39.4 kMESF (inactive)
CCCCOc1ccc(C(=O)NNC(=S)NC(=O)CC)cc1	39.6 kMESF (inactive)

Compound	GFP fluorescence (kMESF)
O=c1c2cc(Br)ccc2nc(-c2ccc([N+](=O)[O-])cc2)n1O	29.6 kMESF (inactive)
CC[C@H](C)/C=C(C)/C=C/C1=CC2=C(Cl)C(=O)[C@@](C)(OC(C)=O)C(=O)C2=CO1	1.57 kMESF (inactive)
COc1cc(/C=C/c2ccc3c(Br)cc(Br)c(O)c3n2)ccc1O	27.7 kMESF (inactive)
CCOc1ccc(N2C(=O)C(Cl)=C(Nc3ccccc3O)C2=O)cc1	43.1 kMESF (inactive)
O=C1N(c2ccccc2C(F)(F)F)OC1(Cc1ccccc1)c1ccccc1 (centres undefined)	41.5 kMESF (inactive)
O=c1[nH]c(-c2ccccn2)nc(C(F)(F)F)c1Br	36.9 kMESF (inactive)
CCN1/C(=C/c2ccc3cc(C)ccc3[n+]2CC)Sc2ccc3sccc3c21	43.3 kMESF (inactive)
CCc1ccc(C(=O)/C=C/c2ccc([N+](=O)[O-])o2)cc1	49.5 kMESF (inactive)
O=C(Nc1nnc(-c2ccc(Cl)cc2)o1)c1ccccc1Br	28.4 kMESF (inactive)
CC1(C)C[C@H]2C=C(C=O)[C@]3(C=O)C[C@]3(C)[C@H]2C1	36.7 kMESF (inactive)
COc1ccc(N=Cc2nc(-c3ccccc3)oc2OC(C)=O)cc1	35 kMESF (inactive)
O=C1NC(=O)C(=Cc2ccc(-c3ccc(Cl)cc3)o2)C(=O)N1	22.3 kMESF (inactive)
O=C(NNC(=S)NC(=O)c1ccco1)c1ccc(F)cc1	43.7 kMESF (inactive)
Cc1cc(C)c(C)c(S(=O)(=O)ON2C(=O)c3ccccc3C2=O)c1C	40 kMESF (inactive)
C#CCOCCOCCOCCNc1nc(N2CCN(C(=O)CCCCCCCCCCNC(=O)[C@H](CCCCN)n3cc(C)nn3)CC2)nc(N2CCN(C(=O)CCCCCCCCCCNC(=O)[C@H](CCCN=C(N)N)n3cc(C[C@@H](C)CC)nn3)CC2)n1	43.6 kMESF (inactive)
Cc1ccc(N2C(=O)CC(Sc3ncn[nH]3)C2=O)cc1C (centres undefined)	49.6 kMESF (inactive)
C=CCN1C(=O)/C(=C/c2ccc(-c3ccc(F)cc3)o2)SC1=S	35.3 kMESF (inactive)
Cc1cccc(C(=O)NC(=S)NNC(=O)Cc2ccccc2)c1	37.6 kMESF (inactive)
O=c1c2cnn(-c3ccccc3)c2ncn1Cc1ccco1	29.6 kMESF (inactive)
Oc1ccc(N=Nc2ccccc2)o1	49 kMESF (inactive)
